According to patent US10052317B2, “Method for treating or preventing hot flushes” (Imperial Innovations Limited, priority 2013, dated 2018):
*1 amine or outer side, *2 acyl side, *3 side chain or, on linkers, in order; H or OH if unused. Where a SMILES comes first, the peptide text is derived from it. [ ]: non-standard residue; d: D form. NMeF = CN[C@@H](Cc1ccccc1)C(=O)O; Suc = O=C(CCC(=O)[*:2])[*:1]

Key:
[1] = target: T1, NKR3 (Homo sapiens, UniProt P29371); conditions: literature (Spooren 2006; Griebel 2012; Elmore 2011); cited from earlier work
T1 sequence (P29371 1-465): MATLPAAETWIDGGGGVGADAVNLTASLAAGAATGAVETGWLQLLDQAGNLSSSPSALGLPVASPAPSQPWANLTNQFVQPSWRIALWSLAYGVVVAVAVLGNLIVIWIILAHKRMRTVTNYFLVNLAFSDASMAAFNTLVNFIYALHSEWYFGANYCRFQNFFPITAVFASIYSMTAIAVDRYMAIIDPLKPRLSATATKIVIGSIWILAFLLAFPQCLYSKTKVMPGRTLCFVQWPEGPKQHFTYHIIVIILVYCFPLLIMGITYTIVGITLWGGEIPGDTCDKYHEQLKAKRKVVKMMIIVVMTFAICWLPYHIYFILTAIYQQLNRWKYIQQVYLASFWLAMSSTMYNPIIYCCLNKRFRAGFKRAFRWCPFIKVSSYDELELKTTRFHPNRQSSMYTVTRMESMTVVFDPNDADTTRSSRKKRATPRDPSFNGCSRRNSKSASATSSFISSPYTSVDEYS

[2] = tested on: ovariectomised rats; conditions: Dacks et al. 2011; cited from earlier work
[3] = tested on: healthy female volunteers; assay: Double-blinded placebo-controlled physiological assessment study during iv infusion of NKB and vehicle to healthy women; type: in vivo, human; conditions: for mean HR / mean skin temperature by skin probe / mean skin temperature by thermal imaging camera / mean MAP: NKB infusion
Text: Ten healthy female volunteers participated in the study (mean age 35.3±1.3y; mean body mass index 22.1±0.7 kg/m2), following ethical approval (reference: 10/H0707/68) and written consent, in accordance with The Declaration of Helsinki. Participants had no medical problems, were not on any regular medication and had regular menstrual cycles. Participants attended in the mornings and during the follicular phase of their menstrual cycle to minimise physiological changes in body temperature occurring during sleep and associated with ovulation (1) (Day of menstrual cycle: 5.9±0.6)
(§1) Human sequence neurokinin B was obtained and used as described above.
Having observed in Example 3 that participants reported flushing during NKB infusion, a double-blinded placebo-controlled study was carried out. This was performed in a climate-controlled Clinical Research Unit with ambient temperature 24° C. and humidity 50% as has been established in previous studies to be a suitable environment to investigate menopausal flushing (e.g. de Bakker I P, Everaerd W, Maturitas (1996) 25:87-98; Carpenter J S, Gilchrist J M, Chen K, Gautam S, Freedman R R, Menopause: The Journal of The North American Menopause Society (2004) 11:375-381). Participants were admitted on a morning between days 3 and 10 of their menstrual cycle, and asked to lay supine for the 270 minute study duration (FIG. 3). A cannula was inserted into a large forearm vein in both arms: one for collection of blood, and the second for vehicle (gelofusin) or NKB infusion. 30 minute iv infusion of either NKB ([…]) or vehicle (equivalent volume) were commenced at t=60 min and t=180 min, by an investigator blinded to the identity of each infusion. Each participant received one NKB infusion and one vehicle infusion, randomised and prepared by an independent investigator. Participants were informed that they could receive any of the following: NKB followed by vehicle; vehicle followed by NKB; NKB twice; vehicle twice. This strategy ensured integrity of blinding, since any symptoms experienced during the first infusion would not allow participants to automatically deduce the identity of the second infusion.
In order to prevent confounding factors which may affect flushing, participants were asked to refrain from hot drinks, caffeine, alcohol and spicy foods for 12 hours preceding the study start and for the duration of the study. All participants wore light cotton standard hospital gowns. All studies commenced between 9.30-10.30 am. Two experienced physicians were in attendance at all times. Symptoms, heart rate, blood pressure, sweating and skin temperature monitoring were performed as detailed below:
Heart Rate (HR) and Mean Arterial Blood Pressure (MAP): HR was recorded minutely for 20 minutes pre-infusion until 20 minutes post-infusion. MAP was recorded at 5 minute intervals (to minimize discomfort) for 20 minutes pre-infusion until 20 minutes post-infusion. At other times HR and MAP were recorded at 10 minute intervals (FIG. 3). MAP (in mmHg) was calculated using the following standard formula: MAP=((2×diastolic BP)+systolic BP)/3.
Skin Temperature: Skin temperature was recorded each minute for 20 minutes pre-infusion until 20 minutes post-infusion and at 10 minute intervals at other times. Skin temperature was measured by skin temperature probe attached to the neck (Mindray, Huntingdon, UK) and by thermal imaging camera (T440Bx, Flir, Wilsonville, USA). Thermal imaging temperature values were determined by in-built software which recorded the highest temperature point in a box constructed to contain the shoulders and head of the participant.
Skin Conductance: Increased skin conductance is an objective marker of sweating which occurs in menopausal flushing. […]

[4] = tested on: healthy female subjects; assay: 180-min intravenous infusion of NKB to healthy women, hot flush symptom diary; type: in vivo, human
Experimental: Eight healthy female subjects participated in the study, following ethical approval (reference: 10/H0707/68) and written consent, in accordance with The Declaration of Helsinki. All subjects had regular periods. No subjects had any history of hot flushes, deficient levels of sex hormones, or were receiving any regular medications.
as §1
[…] Continuous cardiac monitoring was performed. Heart rate, blood pressure, and adverse symptoms were recorded at regular intervals. Participants were asked to complete a symptom diary in order to measure subjective frequency and problem rating of hot flushes during each study visit. All subjects also completed a questionnaire at the end of each study visit to summarise the symptoms that they experienced that day. Data was analysed by an investigator in a blinded manner.
Data are presented as mean±standard error of mean (SEM). Multiple means were compared using one-way ANOVA with Dunnett's post-hoc test. Pairs of means were compared using paired two-tailed t-tests.

[5] = tested on: healthy female volunteers; assay: Symptom assessment study during 30-min iv infusion of NKB to healthy women; type: in vivo, human; conditions: 5.12 nmol/kg/min iv for 30 min
Text: Five healthy female volunteers participated in the study (mean age 37.8±1.7y; mean body mass index 21.9±0.7 kg/m2), following ethical approval (reference: 10/H0707/68) and written consent, in accordance with The Declaration of Helsinki. Participants had no medical problems, were not on any regular medication and had regular menstrual cycles. Participants attended in the mornings and during the follicular phase of their menstrual cycle to minimise physiological changes in body temperature occurring during sleep and associated with ovulation (1) (Day of menstrual cycle: 8.0±0.9)
as §1
Participants were admitted in the morning to the Clinical Investigation Unit between days 3 and 10 of their menstrual cycle, and asked to lay supine for the 180 minute study duration (FIG. 2). A cannula was inserted into a large forearm vein and NKB (5.12 nmol/kg/min) was administered by intravenous (iv) infusion for 30 min commencing at t=90 min. This dose of NKB was selected as it was the maximal dose that was well-tolerated dose experiment 1, above. NKB was dissolved in saline containing gelofusin (5% vol/vol) (B. Braun Medical, Sheffield, UK) to minimize peptide adsorption (Kraegen E W, Lazarus L, Meler H, Campbell L, Chia Y O, Br Med J (1974), 3:464-466). Participants (but not investigators) were blinded as to the identity of the infusion (NKB or vehicle, however all participants received NKB). Participants were informed before the study that they may experience body sensations or symptoms and they were asked to report these in real time during the study. Participants were not specifically informed that they may experience ‘hot flush’ symptoms so as to minimise reporting bias.
Data are presented as mean±standard error of mean (SEM). Means were compared using two-tailed paired t-tests. p<0.05 was considered statistically significant.

[6] = tested on: healthy male subjects; assay: Dose-finding study with 90-min intravenous infusion of NKB to healthy men; type: in vivo, human
Text: Human sequence neurokinin B was synthesised by Bachem Holding AG (Bubendorf, Switzerland), and purified by reverse-phase high performance liquid chromatography (HPLC). Electrospray mass spectroscopy and amino acid analysis confirmed identity of the peptide (lot:3007511). The Limulus amoebocyte lysate test detected no endotoxin (Associates of Cape Cod, Liverpool, UK), and bacterial culture was sterile (Department of Microbiology, Hammersmith Hospital, London, UK) in samples of neurokinin B peptide. Vials of freeze-dried neurokinin B were stored at −20° C. and reconstituted in 0.9% saline.
23 healthy male subjects participated in the study (mean age of 23 subjects: 29.0±1.3 years; mean body mass index of 23 subjects: 23.3±0.3 kg/m2), following ethical approval (reference:10/H0707/68) and written consent, in accordance with The Declaration of Helsinki. No subjects had any history of hot flushes, deficient levels of sex hormones, or were receiving any regular medications.
Studies were performed in the Clinical Investigation Unit, during which subjects asked to lay supine. This study was blinded to subjects but not investigators. NKB was dissolved in a vehicle consisting of saline containing Gelofusin (5% vol/vol) (B. Braun Medical, Sheffield, UK) to minimize peptide adsorption. […] Heart rate, blood pressure, and adverse symptoms were recorded at regular intervals. […]

[7] = 5.12 nmol/kg/h iv for 30 min, of the flushing participants
[8] = during flushing symptoms, p<0.05 vs. pre-symptoms
[9] = entire 30 minute NKB infusion period vs vehicle infusion period
[10] = over the entire duration of the infusion

CC(=O)N(C)C1(c2ccccc2)CCN(CCC[C@]2(c3ccc(Cl)c(Cl)c3)CCCN(C(=O)c3ccccc3)C2)CC1 [Osanetant, (R)-N-{{3-[1-Benzoyl-3-(3,4-dichlorophenyl)piperidin-3-yl]prop-1-yl}-4-phenylpiperidin-4-yl}-N-methylacetamine]
selectivity for NKR3 over NKR1 and NKR2 [1]: selective for NKR3 over NKR1 and NKR2

CC[C@H](NC(=O)c1c(O)c(-c2ccccc2)nc2ccccc12)c1ccccc1 [Talnetant, 3-hydroxy-2-phenyl-N-(1-phenylpropyl)quinoline-4-carboxamide]
selectivity for NKR3 over NKR1 and NKR2 [1]: selective for NKR3 over NKR1 and NKR2

CSCC[C@H](NC(=O)[C@H](CC(C)C)NC(=O)CNC(=O)[C@H](Cc1ccccc1)N(C)C(=O)[C@H](Cc1ccccc1)NC(=O)[C@H](CC(=O)O)NC(=O)CCC(=O)O)C(N)=O [senktide] (Suc-DF[NMeF]GLM-NH2)
core temperature [2]: reduced core temperature

NKB: Human sequence neurokinin B synthesised by Bachem, purified by reverse-phase HPLC; tachykinin peptide, natural ligand for NKR3
onset of first flushing episodes after NKB infusion initiation ([3]; 5.12 nmol/kg/h iv for 30 min): 1 to 12 min
severity of flushing symptoms ([3]; 5.12 nmol/kg/h iv for 30 min): mild to strong
participants who experienced flushing during NKB infusion ([3]; 5.12 nmol/kg/h iv for 30 min, double-blinded): eight out of ten
participants with a single flushing episode [3, 7]: five
participants with three flushing episodes [3, 7]: two
participants with two flushing episodes [3, 7]: one
participants with concordant increases in sternal skin conductance at the time of flushing ([3]; 5.12 nmol/kg/h iv, of the flushing participants): six of the eight
mean HR [3, 8]: 76.2±1.6 bpm
mean skin temperature by skin probe [3, 8]: 34.7±0.3 Celsius
mean skin temperature by thermal imaging camera [3, 8]: 36.8±0.1 Celsius
mean MAP ([3]; during flushing symptoms, p=ns vs. pre-symptoms): 82.5±2.2 mmHg
mean MAP ([3]; pre-symptom period): 83.2±8.6 mmHg
mean skin temperature by skin probe ([3]; pre-symptom period): 34.6±0.2 Celsius
mean skin temperature by thermal imaging camera ([3]; pre-symptom period): 36.7±0.1 Celsius
mean HR ([3]; pre-symptom period, mean±SEM): 70.3±2.1 bpm
change in serum FSH [3, 9]: No significant changes
change in serum LH [3, 9]: No significant changes
change in serum estradiol [3, 9]: No significant changes
overall change in HR, NKB vs vehicle infusion [3, 10]: No overall changes
overall change in mean arterial blood pressure (MAP), NKB vs vehicle infusion [3, 10]: No overall changes
overall change in skin temperature (skin probe or thermal imaging camera), NKB vs vehicle infusion [3, 10]: No overall changes
hot flushes experienced ([4]; healthy women, iv infusion 0.64 nmol/kg/h (lowest dose)): No hot flushes were experienced
healthy women who experienced hot flushes ([4]; iv infusion 1.28 nmol/kg/h): 1/6
healthy women who experienced hot flushes ([4]; iv infusion 2.56 nmol/kg/h): 2/7
healthy women who experienced hot flushes ([4]; iv infusion 5.12 nmol/kg/h (highest dose)): 7/8
mean number of hot flushes per visit ([4]; iv infusion 5.12 nmol/kg/h, mean±SEM, P<0.01 vs. placebo (0)): 1.13±0.30
participants experiencing flushing who reported a single flushing episode [5]: Three of the four
participants who experienced three flushing episodes [5]: one
participants reporting flushing during NKB infusion ([5]; P<0.05 vs. vehicle): four out of the five
time to full resolution of symptoms after administration was discontinued ([6]; 10.24 nmol/kg/h): ≤ 5 min
reproductive hormone secretion ([6]; intravenous administration): did not stimulate significant reproductive hormone secretion
